Here are results for one compound from article PMC9646747, “An allosteric modulator activates BK channels by perturbing coupling between Ca^2+ binding and pore opening” (Nature Communications, 2022).

The target of this assay is T1, BK channel (Slo1, mslo1 mbr5 splice variant) (Mus musculus, UniProt Q08460).
T1 construct: gene Kcnma1; mbr5 splice variant of mslo1
In words: inside-out patch-clamp of channels expressed in Xenopus oocytes (GV shift dose response; also outward-current block, IC50 […]), supported by mutagenesis. The format is cell-based.

For the compound `COc1cc(NC(=O)[C@@H](N)CCCNC(=N)N)cc2ccccc12` [BC5], the concentration giving a half-maximal response (EC50) is 2.5 ± 0.3 µM.
